In ChEMBL document CHEMBL5233235, “Chalcone hybrids as privileged scaffolds in antimalarial drug discovery: A key review” (Eur J Med Chem, 2020):
pIC50: −log10 of the molar value. ≈ marks a conversion by molar mass, not a printed value. One block for each compound: values may come before it.

How the values were obtained:
[1] = system: Plasmodium falciparum; experiment: Antiparasitic activity against Plasmodium falciparum W2 incubated for 48 hrs by flow cytometry based analysis; format: functional, organism-based; conditions: W2, 48 h
[2] = system: Plasmodium falciparum; experiment: Antimalarial activity against Plasmodium falciparum; format: functional, organism-based
[3] = system: Plasmodium falciparum; experiment: Antimalarial activity against Plasmodium falciparum ATCC 30932 incubated for […]; format: functional, organism-based
[4] = Cytotoxicity against mouse FM3A cells incubated for 48 hrs; format: toxicity, cell-based
[5] = Selectivity index, ratio of EC50 for cytotoxicity against mouse FM3A cells to EC50 for antimalarial activity against Plasmodium falciparum ATCC 30932; format: toxicity, cell-based; conditions: read-out: Ratio EC50
[6] = system: Plasmodium falciparum; experiment: Antimalarial activity against chloroquine-resistant Plasmodium falciparum W2 incubated for 48 hrs by microscopic analysis; format: functional, organism-based; conditions: W2, 48 h
[7] = system: Plasmodium falciparum; experiment: Antiplasmodial activity against Plasmodium falciparum 3D7 incubated for 30 hrs followed by addition of [3H]-hypoxanthine and measured after 18 hrs by liquid scintillation counting method; format: functional, organism-based
[8] = system: Plasmodium falciparum; experiment: Antimalarial activity against chloroquine-sensitive Plasmodium falciparum 3D7; format: functional, organism-based
[9] = system: Plasmodium; experiment: Antimalarial activity against Plasmodium falciparum K1 by [3H]-hypoxanthine uptake assay; format: functional, organism-based
[10] = system: Plasmodium falciparum; experiment: Antimalarial activity against Plasmodium falciparum 3D7; format: functional, organism-based
[11] = Cytotoxicity against human HepG2 cells; format: toxicity, cell-based
[12] = system: Plasmodium falciparum; experiment: Antimalarial activity against chloroquine-sensitive Plasmodium falciparum 3D7 by candle jar method; format: functional, organism-based
[13] = Plasmodium falciparum, 3D7, read-out: IC50

Compound: COc1cc(/C=C/C(=O)c2ccc(NS(=O)(=O)c3cc(Cl)ccc3Cl)cc2)cc(OC)c1OC
- pIC50 [1]: 6.32

Compound: O=C(/C=C/c1ccc2ccccc2c1)c1c[n+]([O-])c2ccccc2[n+]1[O-]
- pIC50 [2]: 5.24

Compound: COc1ccc(C(=O)/C=C/c2ccc(OC)c(OC)c2)c(O)c1
- EC50 [3]: 1 mg/L (≈ 3.18 µM)
- EC50 at 48 h [4]: > 3.3 mg/L
- selectivity ratio [5]: > 3.3

Compound: O=C(/C=C/c1cccc(S(=O)(=O)N2CCOCC2)c1)c1ccccc1
- pIC50 [6]: 5.69

Compound: C[C@@H]1CC[C@H]2[C@@H](C)C(=O)O[C@@H]3O[C@@]4(C)CC[C@@H]1[C@]32OO4 [ARTEMISININ]
- IC50 [7]: 0.021 uM/ml

Compound: CCO/C(C)=N/Oc1ccc(C(=O)/C=C/c2cc(OC)ccc2OC)cc1
- IC50 [7, 13]: 6 mg/L (≈ 16.2 µM)

Compound: CCO/C(C)=N/Oc1ccc(/C=C/C(=O)c2ccc3ccccc3c2)cc1
- IC50 [7, 13]: 12 mg/L (≈ 33.4 µM)
- IC50 [11]: 54 mg/L (≈ 150 µM)

Compound: CCc1ccc(/C=C/C(=O)c2ccc(OC)cc2OC)cc1
- pIC50 [9]: > 5.30

Compound: CCO/C(C)=N/Oc1ccc(C(=O)/C=C/c2cc(OC)c(OC)c(OC)c2)cc1
- IC50 [7, 13]: 12 mg/L (≈ 30 µM)
- IC50 [11]: 20 mg/L (≈ 50.1 µM)

Compound: COc1ccc(/C=C/C(=O)c2ccc(-n3ncc4ccccc43)cc2)c(OC)c1
- IC50 [12]: 1.1 mg/L (≈ 2.86 µM)

Compound: COc1cc(/C=C/C(=O)c2c[n+]([O-])c3ccccc3[n+]2[O-])cc(OC)c1OC
- pIC50 [2]: 5.21

Compound: CCO/C(C)=N/Oc1ccc(C(=O)/C=C/c2ccc(OCc3ccccc3)cc2)cc1
- IC50 [7, 13]: 12 mg/L (≈ 28.9 µM)

Compound: COc1ccc(/C=C/C(=O)c2ccc(OC)cc2OC)c(OC)c1
- pIC50 [9]: > 5.30

The next lines start with the values.

- pIC50 [1]: 6.17
Compound: O=C(/C=C/c1ccc(F)cc1F)c1ccc(NS(=O)(=O)c2cc(Cl)ccc2Cl)cc1

- MIC [2]: 10 mg/L (≈ 23.6 µM)
Compound: O=C(/C=C/c1cc2ccccc2nc1Cl)c1cc(Br)cc(Cl)c1O

- pIC50 [2]: 5.68
Compound: O=C(/C=C/c1c[nH]c2ccccc12)c1ccccc1O

- MIC [2]: 10 mg/L (≈ 22.1 µM)
Compound: COc1ccc2nc(Cl)c(/C=C/C(=O)c3cc(Br)cc(Cl)c3O)cc2c1

- IC50 [8]: < 5 mg/L
Compound: O=C(/C=C/c1ccc([N+](=O)[O-])cc1)c1c(O)c2ccccc2oc1=O

- pIC50 [9]: > 5.30
Compound: COc1ccc(C(=O)/C=C/c2cnc3ccccc3c2)c(OC)c1

- pIC50 [10]: 6.23
Compound: COc1ccc(C(=O)/C=C/c2ccc(O)c(O)c2)c(O)c1 [CALYTHROPSIN]

- MIC [2]: 50 mg/L (≈ 111 µM)
Compound: Cc1cccc(C(=O)/C=C(\I)c2cc3ccccc3nc2Cl)c1O
